Results: US20130131065A1, “TREATMENT OF TYPE 2 DIABETES” (priority 2010, published 2013)

Test system: Rat pancreatic islets
Test: Apoptosis (cytoplasmic nucleosomes, Cell Death Detection ELISA) in cultured rat pancreatic islets with or without cytokine cocktail
Format: cell-based
Protocol: Male Wistar rat islets (Elevage Janvier, Le Genest-St-Isle, France) were isolated using collagenase (Serva, Heidelberg, Germany) and cultured in RPMI at 11 mM glucose (Invitrogen, CA, USA) supplemented with 10% FCS (Fetal Calf Serum), 100 Units/ml penicillin, 100 μg/ml streptomycin and 100 μg/ml gentamycin in low-attachment 24-well plates (Corning, N.Y., USA). These islets were incubated with a cocktail of rat cytokines (TNF-alpha, IL-1beta and INF-gamma each at 2 ng/ml) for 24 hours (Brun T. et al., 2004 and 2007). […] Aliquots of the medium were used to measure insulin accumulated during the culture period using immune enzyme assay kits (Brunchwig, Basel, Switzerland). Furthermore, quantification of cytoplasmic nucleosomes, a direct indicator of apoptosis, was performed with the Cell Death Detection ELISA kit (Roche, Basel, Switzerland). Each condition was tested with 50 rat islets in duplicate and four independent experiments were performed. The results are provided as mean+/−sem and statistical analyses were performed using one-way ANOVA with Bonferroni and Dunnett post-hoc tests.
The conditions without cytokines allowed the analysis of the specific effect of the compound on islets while the combination of the drug with cytokines allowed the study of the effect of Imeglimin on islets under an inflammatory stress. To measure cell death in islets, quantification of cytoplasmic nucleosomes in islet cells, a consequence of DNA fragmentation during apoptosis (Robertson et al., 2000), was performed. […] Furthermore, a negative control and a positive control were added to the conditions with and without cytokines to test the effectiveness of the protocol. […] The results of the quantification of cell death for each condition are presented on FIG. 1.

[1] = with cytokines (TNF-alpha, IL-1beta, INF-gamma each 2 ng/ml, 24 hours), compound at 100 μM
[2] = with cytokines (each 2 ng/ml, 24 hours), compound at 1 mM
[3] = with cytokines (each 2 ng/ml, 24 hours), Exendin-4 at 10 nM

## CC1N=C(N)NC(N(C)C)=N1.Cl (single isomer, unassigned; (+)) [(+)-2-amino-3,6-dihydro-4-dimethylamino-6-methyl-1,3,5-triazine hydrochloride]
Both doses (100 μM and 1 mM), cytokines each 2 ng/ml, 24 hours
  protection of the islets from the cytokine stress: completely protected
[1]
  less apoptosis than cytokine-stressed islets: 37%
  less apoptosis than untreated islets: 29%
[2]
  protection: less apoptosis than cytokine-stressed islets: 25%
  protection: less apoptosis than untreated islets: 16%
With cytokines, lower concentration tested (100 μM) vs Exendin-4 at 10 nM
  more potent than Exendin-4 (protective effect): ~50%
Without cytokines, compound at 100 μM vs Exendin-4 at 10 nM
  level of protection relative to the Exendin-4 level: two thirds
Without cytokines, compound at 100 μM, 24 hours
  less apoptosis than untreated islets: 10%

## Exendin-4 [reference compound]
[3]
  drop in apoptosis vs cytokine-stressed islets: 29%
  drop in apoptosis vs untreated islets: 20%
Without cytokines, Exendin-4 at 10 nM, 24 hours
  decrease in cell death (vs untreated islets): 16%
